Literature values in patent US9636407B2, “Caspofungin acetate formulations” (priority 2012, dated 2017).

Assays:
[1] = CANCIDAS prescribing information
[2] = background statement

## 1-[(4R,5S)-5-[(2-aminoethyl)amino]-N^2-(10,12-dimethyl-1-oxotetradecyl)-4-hydroxy-L-ornithine]-5-[(3R)-3-hydroxy-L-ornithine]pneumocandin B0 diacetate (salt) [caspofungin acetate]
[1]
  pH of a saturated solution in water: about 6.6
[2]
  oral bioavailability: poor
